Drawing on patent US5153227A, “Phenylsulfonyl nitromethanes as aldose reductase inhibitors” (Imperial Chemical Industries PLC, priority 1987, dated 1992), this text covers IC50 for 1 compound.

The term IC50 denotes the concentration needed to halve the response being measured. Low values mean greater potency, high ones weaker potency.

This assay addresses T1, aldose reductase (Bos taurus, UniProt P16116).
T1 construct: partially purified aldose reductase is isolated in known manner from bovine lenses; from tissue; host or cells: bovine lenses
The assay is described as follows: in vitro inhibition of partially purified aldose reductase isolated from bovine lenses (reduction of glucose to sorbitol, spectrophotometric). Format: biochemical. As to conditions: in vitro test, bovine lens aldose reductase. The protocol:
Thus, partially purified aldose reductase is isolated in known manner from bovine lenses. The percentage inhibition of this enzyme's ability in vitro to catalyse the reduction of aldoses to polyhydric alcohols, and particularly to reduce glucose to sorbitol, caused by a test compound is then determined using standard spectrophotometric methods.

In the case of `O=[N+]([O-])CS(=O)(=O)c1cccc2ccccc12` [Example 1, (1-naphthylsulphonyl)nitromethane], the IC50 was determined as 0.32 µM. This lies in the sub-micromolar range.
